What was measured:
[1] = molecular target: T1, CK2α (Homo sapiens, UniProt P68400); assay: Steady state kinetic analysis of CK2 inhibition (Lineweaver-Burk); format: biochemical; set-up: made in house; host or cells: Escherichia coli (CK2α); details: for Ki: increasing ATP
Experimental: Steady state kinetic analysis of compound 1 complexation with CK2 was performed by incubation of CK2α with increasing concentrations of CK2β in the presence of different concentrations of the compound. ATP and eIF2-derived peptide were present at their saturating concentrations, 100 μM and 600 μM, respectively (Fig. 3e).
In the presence of 100 μM of compound 1, adding increasing concentrations of CK2β-dependent peptide at a saturating concentration of ATP (100 μM) had no effect on the extent of inhibition (Fig. 2d) showing that the inhibition is also not competitive with the peptide substrate. Using steady-state kinetic analysis, we examined the effects of increasing ATP concentrations on the inhibition of phosphorylation by compound 1. In the presence of a saturating concentration of the CK2β-dependent peptide substrate (133 μM), increasing ATP concentrations reduced the level of inhibition but could not restore either the maximal velocity of the enzyme, Vmax, or the Michaelis constant, km, for ATP.
For Olig2 phosphorylation assay, GST-Olig2 fusion protein (3.7 μg) was incubated with 200 nM CK2α, in the absence or presence of 50 μM compound 1 and increasing concentrations of CK2β. Samples were analyzed by SDS PAGE and subjected to autoradiography. Phosphoproteins were quantified by densitometry scanning. For eIF2 peptide phosphorylation assay, the CK2β-dependent peptide substrate (600 μM) was incubated with CK2α (40–50 nM) and increasing concentrations of compound 1 or/and CK2β.
Fig. S2. Ki and Ki’ value determination from enzymatic kinetic characterization of CK2 inhibition by compound 1. (a) Ki value has been calculated from linear regression analysis of the slopes (α/Vmax) of the Lineweaver-Burk double reciprocal plots of Fig 2f. (b) Ki’ value has been calculated from linear regression analysis of the y-intercept (α’/Vmax) of Lineweaver-Burk double reciprocal plots of Fig 2f.

[2] = molecular target: T2, CHK2 (Homo sapiens, UniProt O96017); assay: Kinase selectivity profiling (Millipore Kinase profiler); format: biochemical; details: 100 μM compound; 10 μM ATP
T2 construct: purchased Millipore (Upstate Kinase Profiler Panel Service)
T2 sequence (O96017 whole entry): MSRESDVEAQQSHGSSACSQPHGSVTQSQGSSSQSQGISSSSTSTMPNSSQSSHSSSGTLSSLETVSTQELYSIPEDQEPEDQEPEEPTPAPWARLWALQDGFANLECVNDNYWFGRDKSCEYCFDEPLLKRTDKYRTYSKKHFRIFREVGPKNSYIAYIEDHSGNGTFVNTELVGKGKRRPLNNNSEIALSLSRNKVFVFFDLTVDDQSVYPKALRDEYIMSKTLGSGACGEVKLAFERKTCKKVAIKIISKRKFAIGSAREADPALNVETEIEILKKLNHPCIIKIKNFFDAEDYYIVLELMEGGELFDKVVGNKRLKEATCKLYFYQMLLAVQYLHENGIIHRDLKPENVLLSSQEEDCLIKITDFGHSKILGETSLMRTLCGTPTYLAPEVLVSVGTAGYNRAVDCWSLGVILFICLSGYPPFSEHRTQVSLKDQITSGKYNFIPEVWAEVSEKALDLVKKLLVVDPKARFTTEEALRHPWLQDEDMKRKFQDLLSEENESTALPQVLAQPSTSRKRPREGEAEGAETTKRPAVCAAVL
Experimental: (§1) Kinase selectivity of compound 1 was assessed using a panel of 45 recombinant protein kinases. The assays were performed at 10 μM ATP in the presence of 100 μM inhibitor using the Kinase profiler panel service (Millipore). Inhibition, expressed as the percent of activity determined in the absence of inhibitor, was calculated from the residual activity measured in the presence of 100 μM inhibitor.
(§2) Fig. S4. Kinase selectivity profile of compound 1 on a panel of 45 different protein kinases. The assays were performed at 10 μM ATP in the presence of 100 μM compound 1 using the Upstate Kinase Profiler Panel Service (Millipore). Residual activity in presence of 100 μM compound 1 are depicted in (a) and a graphical representation of the inhibition percentage in the presence of 100 μM compound 1 is shown in (b).

[3] = molecular target: T3, Pim-1 (Homo sapiens, UniProt P11309); assay: as above; format: biochemical; details: 100 μM compound; 10 μM ATP
T3 construct: purchased Millipore (Upstate Kinase Profiler Panel Service)
T3 sequence (P11309 whole entry): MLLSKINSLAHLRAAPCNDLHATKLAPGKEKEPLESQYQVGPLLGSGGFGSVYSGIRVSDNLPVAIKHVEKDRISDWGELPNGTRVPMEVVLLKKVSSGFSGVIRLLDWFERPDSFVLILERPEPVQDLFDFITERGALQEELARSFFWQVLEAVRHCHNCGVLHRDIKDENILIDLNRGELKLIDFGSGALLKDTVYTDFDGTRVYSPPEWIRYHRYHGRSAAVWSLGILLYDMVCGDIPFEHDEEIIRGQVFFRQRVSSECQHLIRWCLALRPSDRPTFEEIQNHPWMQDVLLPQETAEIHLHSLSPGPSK
Experimental: as §1, §2

[4] = molecular target: T1, CK2α; assay: as above; format: biochemical; details: 100 μM compound; 10 μM ATP
Experimental: as §1, §2

[5] = molecular target: T4, CK2α2β2 (Homo sapiens, UniProt P68400); assay: as above; format: biochemical; details: 100 μM compound; 10 μM ATP
T4 construct: purchased Millipore (Upstate Kinase Profiler Panel Service)
T4 sequence (P68400 whole entry): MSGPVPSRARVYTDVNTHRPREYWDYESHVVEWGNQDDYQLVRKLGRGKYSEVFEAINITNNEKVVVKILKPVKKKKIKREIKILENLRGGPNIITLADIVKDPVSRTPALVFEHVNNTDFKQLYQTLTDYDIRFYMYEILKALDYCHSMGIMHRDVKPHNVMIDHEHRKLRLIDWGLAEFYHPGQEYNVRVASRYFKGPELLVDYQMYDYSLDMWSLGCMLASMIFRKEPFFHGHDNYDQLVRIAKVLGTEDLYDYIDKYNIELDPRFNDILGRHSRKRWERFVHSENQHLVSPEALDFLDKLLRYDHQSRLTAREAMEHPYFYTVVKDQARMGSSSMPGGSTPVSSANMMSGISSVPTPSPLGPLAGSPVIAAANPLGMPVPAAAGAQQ
Experimental: as §1, §2

[6] = molecular target: T5, CK2 holoenzyme (Homo sapiens, UniProt P68400); assay: Autophosphorylation of CK2β by CK2 holoenzyme; format: biochemical; details: increasing concentrations of compound
T5 construct: made in house; host or cells: Escherichia coli (CK2α)
T5 sequence (P68400 whole entry): as above
Experimental: Fig. S3. Compound 1 inhibits CK2β-dependent phosphorylation of Olig2 transcription factor and CK2β-dependent autophosphorylation. (a) CK2α (200 nM) was incubated with increasing concentrations of CK2β in the absence or presence of compound 1 (50 μM) followed by the addition of GST-Olig2 (3.7 μg), [γ^32P]-ATP (100 μM, 1 μCi) and MgCl2 (10 mM). Samples were analyzed by SDS PAGE and subjected to autoradiography. Left and right parts of the image are from the same gel (see Supplementary Fig. S16). (b) ^32P incorporated into GST-Olig2 was determined by densitometry scanning and is expressed as arbitrary units; (c) CK2β (300 nM) was incubated with increasing concentrations of compound 1, 10 μM [γ^32P] ATP and 10 mM MgCl2. Autophosphorylation was initiated by the addition of 300 nM CK2α. Phosphorylated proteins were separated by SDS/PAGE and analyzed by autoradiography (c) or Coomassie Blue staining (d); ^32P incorporation into CK2β was quantified and expressed as arbitrary units (e). Uncropped blots are shown in Supplementary Fig. S16.

[7] = molecular target: T6, CK2 subunit association in MCF10A cells (Homo sapiens, UniProt P68400); assay: Anti-CK2β immunoprecipitation from treated MCF10A cells; format: cell-based; details: 75 μM, 4 h; CK2β-dependent and CK2β-independent substrate; vs DMSO
T6 construct: endogenous in cells; host or cells: MCF10A
T6 sequence (P68400 whole entry): as above
Experimental: The transient nature of the CK2 holoenzyme has been highlighted by the elucidation of its structure. Furthermore, analysis of the spatiotemporal organization of individual CK2 subunits in living cells has shown that they are highly dynamic[10],[12]. Thus, we evaluated the effect of 6 on the CK2 subunit association in human mammary epithelial cells, using two independent strategies. First, CK2β was immunoprecipitated from extracts of MCF10A cells treated with DMSO as control or 75 μM of 6, and the amount of CK2α or CK2 catalytic activity recovered in the immunoprecipitates were analyzed by western blot and CK2 activity assay.
Anti-CK2β immunoprecipitates were prepared from MCF10A cells incubated with DMSO (0.5%) or 75 μM 6 for 4 h. The corresponding immunoprecipitates were analyzed for the presence of CK2 subunits by Western blot (a) and quantified in (b) or for CK2 activity with CK2β-independent and CK2β-dependent peptide substrate (c). […] (d) In situ proximity ligation images of MCF10A cells incubated with 50 μM 6 for 3 h. (e) Number of fluorescent dots per cell was quantified using the BlobFinder software. n = 120 cells from two independent experiments. Mann Whitney test was used and results were found significant (*p-value = 0.0003 and **p-value = 0.044). TEXT PRINTED IN THE PICTURE: (a) 6: Ratio CK2α/CK2β relative to control: 0.77 (75 μM)

T1 sequence (P68400 whole entry): as above

COc1[nH]c2ccc(F)cc2c1C(=O)OCC1CCN(CCNS(C)(=O)=O)CC1 [Compound 1]
Ki ([1]; for CK2α, Lineweaver-Burk slopes): 12 µM
Ki ([1]; for the CK2α-ATP complex, Lineweaver-Burk y-intercepts): 62 µM
Ki' (mixed competitive inhibition towards CK2β) ([1]; for the CK2α-ATP complex, increasing CK2β, ATP 100 μM, eIF2-derived peptide 600 μM): ~65 µM
inhibition at 100 µM [2]: 24%
inhibition at 100 µM [3]: 36%
inhibition at 100 µM [4]: 27%
inhibition at 100 µM [5]: 85%
autophosphorylation of CK2β [6]: dose-dependent decrease

COc1[nH]c2ccc(F)cc2c1C(=O)OCC1CCN(CCNS(=O)(=O)c2ccccc2)CC1.Cl [Compound 6]
CK2 activity in anti-CK2β precipitates [7]: significantly lower
